Laboratory results from patent US9408393B2, “Bismuth-thiols as antiseptics for agricultural, industrial and other uses” (Microbion Corporation, priority 2010, dated 2016).
Where two headings read alike, the source gives them in different places.

What was measured:
S. epidermidis [1] = test: Broth dilution MIC/MBC, BT-antibiotic combinations; assay type: cell-based, Staphylococcus epidermidis; settings: for Δ (0.05 BE), MIC / Δ, MIC: 0.05 μg/ml BisEDT; for Δ (0.1 BE), MBC: 0.1 μg/ml BisEDT
Procedure: Materials & Methods. Susceptibility studies were performed by broth dilution in 96-well tissue culture plates (Nalge Nunc International, Denmark) in accordance with NCCLS protocols (National Committee for Clinical Laboratory Standards. (1997). Methods for Dilution Antimicrobial Susceptibility Tests for Bacteria that Grow Aerobically: Approved Standard M7-A2 and Informational Supplement M100-S10. NCCLS, Wayne, Pa., USA).
Briefly, overnight bacterial cultures were used to prepare 0.5 McFarland standard suspensions, which were further diluted 1:50 (˜2×10^6 cfu/mL) in cation-adjusted Mueller-Hinton broth medium (BBL, Cockeysville, Md., USA). BTs (prepared as described above) and antibiotics were added at incremental concentrations, keeping the final volume constant at 0.2 mL. Cultures were incubated for 24 h at 37° C. and turbidity was assessed by absorption at 630 nm using an ELISA plate reader (Biotek Instruments, Winooski, Vt., USA) according to the manufacturer's recommendations. […] Viable bacterial counts (cfu/mL) were determined by standard plating on nutrient agar.
The checkerboard method was used to assess the activity of antimicrobial combinations. The fractional inhibitory concentration index (FICI) and the fractional bactericidal concentration index (FBCI) were calculated, according to Eliopoulos et al. (Eliopoulos and Moellering, (1996) Antimicrobial combinations. In Antibiotics in Laboratory Medicine (Lorian, V., Ed.), pp. 330-96, Williams and Wilkins, Baltimore, Md., USA). Synergy was defined as an FICI or FBCI index of […], no interaction at >0.5-4 and antagonism at >4 (Odds, F C (2003) Synergy, antagonism, and what the chequerboard puts between them. Journal of Antimicrobial Chemotherapy 52:1). Synergy was also defined conventionally as ≧4-fold decrease in antibiotic concentration.

[2] = tested on: S. epidermidis S2400-1 biofilm; test: Biofilm prevention, BisEDT-antibiotic combinations; assay type: cell-based, Staphylococcus epidermidis; settings: for Δ (0.05 BE), biofilm prevention: 0.05 μg/ml BisEDT
Procedure: (§1) S. epidermidis grown in TSB+2% glucose in polystyrene plates for 48 h at 37° C. Gatifloxacin (GF), clindamycin (CM), minocycline (MC), gentamicin (GM), vancomycin (VM), cefazolin (CZ), nafcillin (NC), and rifampicin (RP). […]

MRSA clinical isolates [3] = test: Broth dilution MIC in BHIG/X medium with subMIC BisEDT; assay type: cell-based, Staphylococcus aureus; settings: 12 MRSA clinical isolates, BHIG/X, mean ± SD
Procedure: (§2) Broth dilution antimicrobial susceptibility studies were performed against 12 MRSA strains using several antibiotics combined with subMIC levels of BisEDT (Table 18). Both the biofilm-prevention concentration (BPC) and the minimum inhibitory concentration (MIC) were determined in a special biofilm culture medium (BHIG/X). […] These strains were already sensitive to vancomycin, but were made considerably moreso in the presence of subMIC BisEDT.
In this particular study, the data indicated synergy between BisEDT and cefepime (FIC<0.5), with many of the isolates at the breakpoint for sensitivity.

[4] = tested on: MRSA clinical isolates biofilm; test: Biofilm-prevention concentration (BPC) in BHIG/X medium with subMIC BisEDT; assay type: cell-based, Staphylococcus aureus; settings: 12 MRSA clinical isolates, mean ± SD
Procedure: as §2

[5] = tested on: lawn of MRSA (Methicillin-resistant S. aureus); test: Antibiotic-soaked discs on bacterial lawn with and without BisEDT; assay type: cell-based, Staphylococcus aureus; settings: antibiotic discs combined with BisEDT 0.05 μg/ml
Procedure: FIGS. 4A and 4B show the subinhibitory BisEDT reversing antibiotic-resistance to several antibiotics. Effects of antibiotics with and without BisEDT (0.05 μg/ml) on a lawn of MRSA (Methicillin-resistant S. aureus) is shown. […] [GM=gentamicin, CZ=cefazolin, FEP=cefepime, IPM=imipenim, SAM=ampicillin/sulbactam, LVX=levofloxacin.

S. epidermidis biofilm = test: Biofilm prevention concentration (BPC), BisEDT and antibiotics; assay type: cell-based, Staphylococcus epidermidis; settings: for Change of biofilm prevention concentration (BPC): 0.05 μg/ml BisEDT
Procedure: as §1

S. epidermidis [6] = test: Growth inhibition (MIC) and MBC, BisEDT and antibiotics; assay type: cell-based, Staphylococcus epidermidis
From the text: Results are expressed as the mean change in MIC (dilution steps) with increasing BisEDT (n=3). See legend in FIG. 5 for antibiotic definitions.
The MIC change was most pronounced for clindamycin and gentamicin, followed by vancomycin, cefazolin, minocycline, gatifloxacin and nafcillin, with rifampicin unaffected.
Minimum bactericidal concentration (MBC) for most antibiotics tested against S. epidermidis decreased slightly with subMIC BisEDT. […] Clindamycin is a bacteriostatic agent, which explains its lack of bactericidal activity. Cefazolin resistance was reversed with respect to the MBC [Domenico et al., 2003]. These effects were additive.

MRSA clinical isolates [7] = settings: cited from earlier work; for MIC Standards, R (resistance): Standard MIC breakpoint for resistance; for MIC Standards, S (antibiotic sensitivity): Standard MIC breakpoint for sensitivity
MRSA = test: Combination MIC study, nafcillin or gentamicin + BisEDT, TSB with 2% glucose; assay type: cell-based, Staphylococcus aureus; settings: for Fold reduction of antibiotic MIC90 by BisEDT: BisEDT 0.2 μg/ml; for FIC: antibiotic combined with BisEDT 0.2 μg/ml
From the text: BTs reversed the resistance of all four gentamicin-resistant isolates tested to clinically relevant concentrations [Domenico et al., 2002]. The MICs for these antimicrobial agents was reduced substantially, especially for gentamicin.

[8] = tested on: S. epidermidis (methicillin-susceptible and methicillin-resistant); test: Graft infection rat model, quantitative graft culture; assay type: in vivo; settings: rats, s.c. Dacron graft, explanted at 7 days, 0.1 mg/l BTs, 10 mg/l RIP, 10 mg/l rifampin
Procedure: As summarized in Table 21, implants impregnated with 0.1 μg/ml BisEDT, 10 μg/ml RIP and 10 μg/ml rifampin, alone or combined were implanted s.c. into rats. Physiological solution (1 ml) containing the MS and MR strains at 2×10^7 cfu/ml was inoculated onto the graft surface using a tuberculin syringe. All grafts were explanted at 7 days following implantation and sonicated for 5 minutes in sterile saline solution to remove the adherent bacteria. Quantitation of viable bacteria was obtained by culturing dilutions on blood agar plates. The limit of detection was approximately 10 cfu/cm^2.

[9] = S. epidermidis S2400-1, BisEDT 0 μg/ml
[10] = S. epidermidis S2400-1, BisEDT 0.0 μg/ml
[11] = S. epidermidis S2400-1, BisEDT 0.05 μg/ml
[12] = S. epidermidis S2400-1, BisEDT 0.1 μg/ml
[13] = S. epidermidis ATCC 35984, BisEDT 0.0 μg/ml
[14] = S. epidermidis ATCC 35984, BisEDT 0.05 μg/ml

Compound	Synergy, MBC (S. epidermidis [1]; S. epidermidis S2400-1)	Synergy, MIC (S. epidermidis [1]; S. epidermidis S2400-1)	Δ (0.05 BE), MIC (S. epidermidis [1]; S. epidermidis S2400-1)	Δ (0.1 BE), MBC (S. epidermidis [1]; S. epidermidis S2400-1)	MIC (S. epidermidis [1]; [9]) [µg/mL]	MBC (S. epidermidis [1]; [10]) [µg/mL]	MIC (S. epidermidis [1]; [11]) [µg/mL]	MBC (S. epidermidis [1]; [12]) [µg/mL]	MIC (S. epidermidis [1]; [12]) [µg/mL]	Δ (0.05 BE), biofilm prevention [2]	Biofilm Prevention (antibiotic concentration) ([2]; BisEDT 0 μg/ml) [µg/mL]	Biofilm Prevention (antibiotic concentration) ([2]; BisEDT 0.05 μg/ml) [µg/mL]	Biofilm Prevention (antibiotic concentration) ([2]; BisEDT 0.1 μg/ml) [µg/mL]	BPC ([4]; BisEDT 0 μg/mL) [µg/mL]	BPC ([4]; BisEDT 0.025 μg/mL) [µg/mL]	BPC ([4]; BisEDT 0.05 μg/mL) [µg/mL]	BPC ([4]; BisEDT 0.1 μg/mL) [µg/mL]	Antibiotic action on MRSA lawn with subMIC BisEDT [5]	Change of biofilm prevention concentration (BPC) (S. epidermidis biofilm)	Reduction in MBC with subMIC BisEDT (S. epidermidis [6])	also measured
Cc1nnc(SCC2=C(C(=O)O)N3C(=O)[C@@H](NC(=O)Cn4cnnn4)[C@H]3SC2)s1 [Cefazolin, cefazolin]	+ (Synergy was also defined conventionally as ≧4-fold decrease in antibiotic concentration)	+ (Synergy was also defined conventionally as ≧4-fold decrease in antibiotic concentration)	4.00	4.80	32	48	8	10	1	2.8	28	10	1	109 ± 86	76 ± 86	76 ± 105	34 ± 28	enhanced antibiotic action	modest decreases	4- to 5 fold	MIC (MRSA clinical isolates [3]; Staphylococcus aureus, MRSA, BisEDT 0 μg/mL, read-out: MIC): 93 ± 75 µg/mL; MIC (MRSA clinical isolates [3]; Staphylococcus aureus, MRSA, BisEDT 0.025 μg/mL, read-out: MIC): 99 ± 76 µg/mL; MIC (MRSA clinical isolates [3]; Staphylococcus aureus, MRSA, BisEDT 0.05 μg/mL, read-out: MIC): 90 ± 60 µg/mL; MIC (MRSA clinical isolates [3]; Staphylococcus aureus, MRSA, BisEDT 0.1 μg/mL, read-out: MIC): 45 ± 32 µg/mL; MIC change (growth inhibition) with BisEDT (S. epidermidis [6]; 0.1 μg/ml (0.5 μM) BisEDT): resistance was reversed to clinically relevant levels; MIC Standards, R (resistance) (MRSA clinical isolates [7]): ≧32 μg/ml; MIC Standards, S (antibiotic sensitivity) (MRSA clinical isolates [7]): ≦8 μg/ml
CCOc1ccc2ccccc2c1C(=O)N[C@@H]1C(=O)N2[C@@H]1SC(C)(C)[C@@H]2C(=O)O [Nafcillin]			0.89	2.00	171	256	192	128	68	0.8	48	64	8						remained unaffected		Δ, MIC (S. epidermidis [1]; S. epidermidis ATCC 35984): 3.2; MIC (S. epidermidis [1]; [13]): 16.00 µg/mL; MIC (S. epidermidis [1]; [14]): 5.00 µg/mL; Fold reduction of antibiotic MIC90 by BisEDT (MRSA): over 4 fold; FIC (MRSA): 0.74
bismuth-1,2-ethanedithiol [BisEDT]																					Quantitative graft culture ([8]; methicillin-resistant S. epidermidis): 6.2 × 10^2 ± 2.3 × 10^2 cfu/cm^2; Quantitative graft culture ([8]; methicillin-susceptible S. epidermidis): 5.8 × 10^2 ± 0.9 × 10^2 cfu/cm^2
gentamicin	+ (Synergy was also defined conventionally as ≧4-fold decrease in antibiotic concentration)	+ (Synergy was also defined conventionally as ≧4-fold decrease in antibiotic concentration)	6.40	6.00	2048	1536	320	256	80	3.9	555	144	12	81 ± 41	63 ± 30	53 ± 31	33 ± 25	enhanced antibiotic action		4- to 16 fold	Δ, MIC (S. epidermidis [1]; S. epidermidis ATCC 35984): 13.3; MIC (S. epidermidis [1]; [13]): 213.33 µg/mL; MIC (S. epidermidis [1]; [14]): 16.00 µg/mL; Synergy, biofilm prevention [2]: borderline; MIC (MRSA clinical isolates [3]; BisEDT 0 μg/mL): 81 ± 40 µg/mL; MIC (MRSA clinical isolates [3]; BisEDT 0.025 μg/mL): 60 ± 27 µg/mL; MIC (MRSA clinical isolates [3]; BisEDT 0.05 μg/mL): 58 ± 30 µg/mL; MIC (MRSA clinical isolates [3]; BisEDT 0.1 μg/mL): 48 ± 31 µg/mL; Fold reduction of antibiotic MIC90 by BisEDT (MRSA): over 10 fold; FIC (MRSA): 0.6; Fold reduction of BPC in presence of subMIC BisEDT (S. epidermidis biofilm; TSB + 2% glucose, 48 h): 4 fold; MIC Standards, R (resistance) (MRSA clinical isolates [7]): ≧16 μg/ml; MIC Standards, S (antibiotic sensitivity) (MRSA clinical isolates [7]): ≦4 μg/ml
